Results from patent US12570631B2, “Substituted N-(4-(pyrimidin and pyridin-4-yl)benzylcarboxamides and its use for treating disorders responsive to inhibition of Btk” (BIOGEN MA INC., priority 2019, dated 2026).
Where two headings read alike, the source gives them in different places.

Tests used:
[1] = target: BTK (Homo sapiens (Human), UniProt Q06187); experiment: In vitro BTK kinase assay: Btk-PolyGAT-LS assay; assay type: biochemical; details: ATP 10 μM, polyGAT 100 nM, BTK 0.25 nM, 30 minutes
[2] = system: CD69 expression on CD19+ B cells in human whole blood; experiment: In vitro whole blood CD69 assay; assay type: cell-based; details: B-cell
[3] = Whole Blood CD69 inhibition, human heparinized blood, anti-human IgD stimulation, CD19+ B cells expressing CD69, read-out: IC50

Sequence of BTK (Q06187 whole entry): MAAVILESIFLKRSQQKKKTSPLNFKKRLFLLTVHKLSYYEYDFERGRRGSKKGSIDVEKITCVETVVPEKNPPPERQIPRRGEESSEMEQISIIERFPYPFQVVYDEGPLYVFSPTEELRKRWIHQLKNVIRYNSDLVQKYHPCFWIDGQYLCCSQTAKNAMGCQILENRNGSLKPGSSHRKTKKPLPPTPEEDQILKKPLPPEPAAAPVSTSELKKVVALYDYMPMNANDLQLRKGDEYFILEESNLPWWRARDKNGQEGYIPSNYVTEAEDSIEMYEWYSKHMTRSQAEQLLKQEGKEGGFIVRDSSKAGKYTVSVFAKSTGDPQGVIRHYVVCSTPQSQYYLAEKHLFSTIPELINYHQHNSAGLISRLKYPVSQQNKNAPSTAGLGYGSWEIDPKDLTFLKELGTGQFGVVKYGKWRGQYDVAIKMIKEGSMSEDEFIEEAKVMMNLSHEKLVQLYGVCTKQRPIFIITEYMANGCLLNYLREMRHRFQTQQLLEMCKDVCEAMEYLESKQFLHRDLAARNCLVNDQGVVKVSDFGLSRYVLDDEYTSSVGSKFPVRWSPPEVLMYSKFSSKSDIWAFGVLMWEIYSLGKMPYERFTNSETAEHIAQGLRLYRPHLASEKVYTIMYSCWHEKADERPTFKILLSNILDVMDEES

Row | Structure (SMILES) | IC50 [1] [nM] | IC50 [2, 3] [nM] | IC50 ([2]; Homo sapiens) [nM]
1 | C=CC(=O)N1CC[C@H](Oc2cnccc2-c2ccc(CNC(=O)c3cn(C(C)(C)C)nn3)c(C)c2)C1 (single isomer, unassigned) [Example 36] | 1 to 10 | > 1000 | 
2 | C=CC(=O)N(C)CC(=O)Nc1cncnc1-c1ccc(CNC(=O)c2cn(C(C)(C)C)nn2)c(C)c1 [Example 29, 1-(tert-butyl)-N-(2-methyl-4-(5-(2-(N-methylacrylamido)acetamido)pyrimidin-4-yl)benzyl)-1H-1,2,3-triazole-4-carboxamide] | < 1 |  | 
3 | C=CC(=O)N(C)CCOc1cnccc1-c1ccc(CNC(=O)c2cc(C(C)(C)C)on2)c(C)c1 [Example 16, 5-(tert-butyl)-N-(2-methyl-4-(3-(2-(N-methylacrylamido)ethoxy)pyridin-4-yl)benzyl)isoxazole-3-carboxamide] | < 1 |  | 
4 | C#CC(=O)N1CCC(Oc2cnccc2-c2ccc(CNC(=O)c3cn(C(C)(C)C)nn3)c(C)c2)CC1 [Example 44, 1-(tert-butyl)-N-(2-methyl-4-(3-((1-propioloylpiperidin-4-yl)oxy)pyridin-4-yl)benzyl)-1H-1,2,3-triazole-4-carboxamide] | < 1 | > 1000 | 
5 | C=CC(=O)N(C)CCOc1c(N)ncnc1-c1ccc(CN2Cc3cc(C4CC4)sc3C2=O)c(C)c1 [Example 11, N-(2-((4-amino-6-(4-((2-cyclopropyl-6-oxo-4,6-dihydro-5H-thieno[2,3-c]pyrrol-5-yl)methyl)-3-methylphenyl)pyrimidin-5-yl)oxy)ethyl)-N-methylacrylamide] | < 1 | 100 to 1000 | 
6 | C=CC(=O)N1CCCC[C@H]1C(=O)Nc1cnccc1-c1ccc(CNC(=O)c2noc(C(C)(C)C)n2)c(C)c1 [Example 32, (S)-N-(4-(3-(1-acryloylpiperidine-2-carboxamido)pyridin-4-yl)-2-methylbenzyl)-5-(tert-butyl)-1,2,4-oxadiazole-3-carboxamide] | < 1 | < 100 | 
7 | C#CC(=O)N1CCC(Oc2cnccc2-c2ccc(CNC(=O)c3cn(C(C)(C)C)nn3)c(C)c2)C1 (stereo not shown) [Example 43, 1-(tert-butyl)-N-(2-methyl-4-(3-((1-propioloylpyrrolidin-3-yl)oxy)pyridin-4-yl)benzyl)-1H-1,2,3-triazole-4-carboxamide] | 1 to 10 | > 1000 | 
8 | C=CC(=O)N1CCC(Oc2cnccc2-c2ccc(CNC(=O)c3cn(C(C)(C)C)nn3)c(C)c2)CC1 [Example 37, N-(4-(3-((1-acryloylpiperidin-4-yl)oxy)pyridin-4-yl)-2-methylbenzyl)-1-(tert-butyl)-1H-1,2,3-triazole-4-carboxamide] | < 1 | > 1000 | 
9 | C=CC(=O)N1CCCC1COc1cnccc1-c1ccc(CNC(=O)c2cn(C(C)(C)C)nn2)c(C)c1F (stereo not shown) [Example 49, N-(4-(3-((1-acryloylpyrrolidin-2-yl)methoxy)pyridin-4-yl)-3-fluoro-2-methylbenzyl)-1-(tert-butyl)-1H-1,2,3-triazole-4-carboxamide] | 1 to 10 | > 1000 | 
10 | C=CC(=O)N(C)CCOc1cncnc1-c1ccc(CNC(=O)c2noc(C(C)(C)C)n2)c(C)c1 [Example 3, 5-(tert-butyl)-N-(2-methyl-4-(5-(2-(N-methylacrylamido)ethoxy)-pyrimidin-4-yl)benzyl)-1,2,4-oxadiazole-3-carboxamide] | < 1 | < 100 | 
11 | C=CC(=O)N1CCCC(Oc2cncnc2-c2ccc(CNC(=O)c3cn(C(C)(C)C)nn3)c(C)c2)C1 (stereo not shown) [Example 39, N-(4-(5-((1-acryloylpiperidin-3-yl)oxy)pyrimidin-4-yl)-2-methylbenzyl)-1-(tert-butyl)-1H-1,2,3-triazole-4-carboxamide] | > 10 | > 1000 | 
12 | C=CC(=O)N(C)CCOc1c(N)ncnc1-c1ccc(CNC(=O)c2nnc(C(C)(C)C)o2)c(C)c1 [Example 1, N-(4-(6-amino-5-(2-(N-methylacrylamido)ethoxy)pyrimidin-4-yl)-2-methylbenzyl)-5-(tert-butyl)-1,3,4-oxadiazole-2-carboxamide] | < 1 |  | < 100
13 | C=CC(=O)N(C)CCOc1cnccc1-c1ccc(CNC(=O)c2ccn(C(C)(C)C)n2)c(Cl)c1F [Example 15, 1-(tert-butyl)-N-(2-chloro-3-fluoro-4-(3-(2-(N-methylacrylamido)ethoxy)pyridin-4-yl)benzyl)-1H-pyrazole-3-carboxamide] | 1 to 10 |  | 
14 | C=CC(=O)N(C)CCOc1cnccc1-c1ccc(CNC(=O)c2cc(C(C)(C)C)on2)c(F)c1F [Example 17, 5-(tert-butyl)-N-(2,3-difluoro-4-(3-(2-(N-methylacrylamido)ethoxy)pyridin-4-yl)benzyl)isoxazole-3-carboxamide] | < 1 |  | 
15 | C=CC(=O)N1CCC(COc2cnccc2-c2ccc(CNC(=O)c3cn(C(C)(C)C)nn3)c(C)c2F)C1 (stereo not shown) [Example 51, N-(4-(3-((1-acryloylpyrrolidin-3-yl)methoxy)pyridin-4-yl)-3-fluoro-2-methylbenzyl)-1-(tert-butyl)-1H-1,2,3-triazole-4-carboxamide] | < 1 |  | 
16 | C=CC(=O)N1CC[C@H]1COc1cnccc1-c1ccc(CNC(=O)c2ccc(C(F)(F)F)nc2)c(C)c1 [Example 52, (S)-N-(4-(3-((1-acryloylazetidin-2-yl)methoxy)pyridin-4-yl)-2-methylbenzyl)-6-(trifluoromethyl)nicotinamide] | > 10 |  | 
17 | C=CC(=O)N1CC[C@@H](Oc2cnccc2-c2ccc(CNC(=O)c3cn(C(C)(C)C)nn3)c(C)c2)C1 (single isomer, unassigned) [Example 35] | > 10 | > 1000 | 
18 | Cc1cc(-c2ccncc2OC2CN(C(=O)/C=C/CN(C)C)C2)ccc1CNC(=O)c1cn(C(C)(C)C)nn1 [Example 40, (E)-1-(tert-butyl)-N-(4-(3-((1-(4-(dimethylamino)but-2-enoyl)azetidin-3-yl)oxy)pyridin-4-yl)-2-methylbenzyl)-1H-1,2,3-triazole-4-carboxamide] | > 10 | > 1000 | 
19 | C=CC(=O)N1CCCC(Oc2cnccc2-c2ccc(CNC(=O)c3cn(C(C)(C)C)nn3)c(C)c2)C1 (stereo not shown) [Example 38, N-(4-(3-((1-acryloylpiperidin-3-yl)oxy)pyridin-4-yl)-2-methylbenzyl)-1-(tert-butyl)-1H-1,2,3-triazole-4-carboxamide] | > 10 | > 1000 | 
20 | C=CC(=O)N1CC(Oc2cnccc2-c2ccc(CNC(=O)c3cn(C(C)(C)C)nn3)c(C)c2)C1 [Example 33, N-(4-(3-((1-acryloylazetidin-3-yl)oxy)pyridin-4-yl)-2-methylbenzyl)-1-(tert-butyl)-1H-1,2,3-triazole-4-carboxamide] | 1 to 10 |  | > 1000
21 | C=CC(=O)N(C)CCOc1c(N)ncnc1-c1ccc(CN2CCN(CC(C)(C)C)CC2=O)c(C)c1 [Example 9, N-(2-((4-amino-6-(3-methyl-4-((4-neopentyl-2-oxopiperazin-1-yl)methyl)phenyl)pyrimidin-5-yl)oxy)ethyl)-N-methylacrylamide] | < 1 | < 100 | 
22 | C=CC(=O)N(C)CCOc1cnccc1-c1ccc(CN2CCc3c(cnn3C(C)(C)C)C2=O)c(C)c1 [Example 12, N-(2-((4-(4-((1-(tert-butyl)-4-oxo-1,4,6,7-tetrahydro-5H-pyrazolo[4,3-c]pyridin-5-yl)methyl)-3-methylphenyl)pyridin-3-yl)oxy)ethyl)-N-methylacrylamide] | < 1 | 100 to 1000 | 
23 | C=CC(=O)N(C)CCOc1c(N)ncnc1-c1ccc(CN2CCc3c(cnn3C(C)(C)C)C2=O)c(C)c1 [Example 6, N-(2-((4-amino-6-(4-((1-(tert-butyl)-4-oxo-1,4,6,7-tetrahydro-5H-pyrazolo[4,3-c]pyridin-5-yl)methyl)-3-methylphenyl)pyrimidin-5-yl)oxy)ethyl)-N-methylacrylamide] | < 1 | < 100 | 
24 | C=CC(=O)N(C)CCOc1c(N)ncnc1-c1ccc(CNC(=O)c2cn(C(C)(C)C)nn2)c(C)c1 [Example 8, N-(4-(6-amino-5-(2-(N-methylacrylamido)ethoxy)pyrimidin-4-yl)-2-methylbenzyl)-1-(tert-butyl)-1H-1,2,3-triazole-4-carboxamide] | < 1 | < 100 | 
25 | C=CC(=O)N(C)CCOc1cnccc1-c1ccc(CNC(=O)c2noc(C(C)(C)C)n2)c(C)c1 [Example 4, 5-(tert-butyl)-N-(2-methyl-4-(3-(2-(N-methylacrylamido)ethoxy)pyridin-4-yl)benzyl)-1,2,4-oxadiazole-3-carboxamide] | < 1 | < 100 | 
26 | C#CC(=O)N1CCCC1COc1cnccc1-c1ccc(CNC(=O)c2cn(C(C)(C)C)nn2)c(C)c1F (stereo not shown) [Example 48, 1-(tert-butyl)-N-(3-fluoro-2-methyl-4-(3-((1-propioloylpyrrolidin-2-yl)methoxy)pyridin-4-yl)benzyl)-1H-1,2,3-triazole-4-carboxamide] | 1 to 10 |  | 
27 | C=CC(=O)N(C)CCOc1cnccc1-c1ccc(CNC(=O)c2noc(C(C)(C)C)n2)c(C(F)(F)F)c1 [Example 14, 5-(tert-butyl)-N-(4-(3-(2-(N-methylacrylamido)ethoxy)pyridin-4-yl)-2-(trifluoromethyl)benzyl)-1,2,4-oxadiazole-3-carboxamide] | < 1 |  | 
28 | C=CC(=O)N(C)CCOc1cnccc1-c1ccc(CNC(=O)c2noc(C(C)(C)C)n2)cc1F [Example 13, 5-(tert-butyl)-N-(3-fluoro-4-(3-(2-(N-methylacrylamido)ethoxy)pyridin-4-yl)benzyl)-1,2,4-oxadiazole-3-carboxamide] | < 1 |  | 
29 | C=CC(=O)N1CCC(Oc2cnccc2-c2ccc(CNC(=O)c3cn(C(C)(C)C)nn3)c(C)c2)C1 (stereo not shown) [Example 34, N-(4-(3-((1-acryloylpyrrolidin-3-yl)oxy)pyridin-4-yl)-2-methylbenzyl)-1-(tert-butyl)-1H-1,2,3-triazole-4-carboxamide] | > 10 |  | 
30 | C=CC(=O)NCC(=O)Nc1cncnc1-c1ccc(CNC(=O)c2cn(C(C)(C)C)nn2)c(C)c1 [Example 30, N-(4-(5-(2-acrylamidoacetamido)pyrimidin-4-yl)-2-methylbenzyl)-1-(tert-butyl)-1H-1,2,3-triazole-4-carboxamide] | 1 to 10 |  | 
